For orientation: EC50 means the concentration at which the effect is half-maximal.

Like-named read-outs stand apart in the source and are kept apart here.

Data set [1] relates to palpebral conjunctiva of Cynomolgus monkeys. The settings on record: cited from earlier work.
Data set [2] deals with rabbit isolated jugular veins. As to the kind of experiment: Vasorelaxation in histamine-precontracted rabbit isolated jugular veins. Format: cell-based. From the text:
FIG. 3. Concentration-response curves for (FIG. 3A) bimatoprost and (FIG. 3B) latanoprost free acid in histamine-precontracted endothelium-intact and endothelium-denuded rabbit isolated jugular veins. Results are expressed as mean±S.E.M. of 5-6 animals. FIG. 3A adapted from Chen J et al., Invest Ophthalmol Vis Sci 2004; 45:ARVO E-Abstract 2609; FIG. 3B extends results reported in Chen J et al., Invest Ophthalmol Vis Sci 2004; 45:ARVO E-Abstract 2609; and Pharmacology Review of New Drug Application 21-275. FDA/Center for Drug Evaluation and Research. 2001;Part 1 and Part 2:1-107. Available online at http://www.fda.gov/cder/foi/nda/2001/21275_Lumigan.htm.
FIG. 4. Concentration-response curves for (FIG. 4A) bimatoprost and (FIG. 4B) latanoprost free acid in the presence or absence of indomethacin in endothelium-intact rabbit isolated jugular veins. Results are expressed as mean±S.E.M. of 7 animals and extend previous results reported in Pharmacology Review of New Drug Application 21-275. FDA/Center for Drug Evaluation and Research. 2001;Part 1 and Part 2:1-107. Available online at http://www.fda.gov/cder/foi/nda/2001/21275_Lumigan.htm.
FIG. 5. Concentration-response curves for (FIG. 5A) bimatoprost and (FIG. 5B) latanoprost free acid in the presence of 100 μM L-NAME or 100 (μM D-NAME control in endothelium-intact rabbit isolated jugular veins. Results are expressed as mean±S.E.M. of 6 animals. *P≦0.05, compared to responses in D-NAME pretreated tissues at the same concentration, paired t-test.
The pharmacological mechanism of ocular surface hyperemia elicited by bimatoprost and latanoprost was investigated using the rabbit jugular vein preparation as a quantitative in vitro model (Chen J. et al., Br J Pharmacol 1995; 116:3035-3041). In these studies, tissues were suspended in jacketed organ baths containing Krebs buffer with 1 μM indomethacin (endothelium-intact and -denuded) or in its absence (endothelium-intact) and precontracted with 3 μM histamine. Vasorelaxant and contractile activity were determined as a percentage (%) of the control tone elicited by histamine. Statistical comparisons for the vasorelaxant activity consisted of testing for significance of difference at each of the concentrations tested using the Student'-s t-test for unpaired samples (indomethacin vs no indomethacin) and paired samples (L-NAME vs D-NAME). Differences were considered statistically significant for P-values ≦0.05.
Indomethacin is a cyclooxygenase inhibitor that is routinely used in prostanoid receptor assays (Chen J et al., Current protocols in pharmacology. New York: John Wiley & Sons, Inc., 2001; 4.18.1-4.18.41). Studies of intact and viable isolated tissues, such as the rabbit jejunum (Ferreira S H, Herman A G, Vane J R., Br J Pharmacol 1976; 56:469-477) and human bronchial muscle (Haye-Legrand I, Cerrina J, Raffestin B et al., J Pharmacol Exp Ther 1986; 239:536-541), found the basal output of prostaglandins to be 8-23 pg/mg of tissue at baseline or over 30 min collection periods. In the presence of 1.7 and 2.79 μM indomethacin, the amounts of prostaglandins generated in isolated tissues become negligible (Botting J H, Salzmann R., Br J Pharmacol 1974; 50:119-124; Haye-Legrand I, Cerrina J, Raffestin B et al., J Pharmacol Exp Ther 1986; 239:536-541). The 1 μM concentration of indomethacin in the tissue bath, in our experience, is sufficient to prevent biosynthesis of prostanoids within isolated vascular tissue preparations (Alster P, Wennmalm Å., Eur J Pharmacol 1983; 86:441-446; Chen J et al., Current protocols in pharmacology. New York: John Wiley & Sons, Inc., 2001; 4.18.1-4.18.41). At substantially higher concentrations, indomethacin has been reported to lose selectivity for prostanoid biosynthesis inhibition (Aboulafia J et al., Br J Pharmacol 1976; 58:223-228; Goodfriend T L, Simpson R U., Br J Pharmacol 1981; 72:247-255; Northover B J, Br J Pharmacol 1971; 41:540-551; Sawdy R et al., Br J Pharmacol 1998; 125:1212-1217). […]

The test system of data set [3] is palpebral conjunctiva of Dutch-Belted (pigmented) rabbits. Conditions: left eye, Bimatoprost 0.03% b.i.d. one month, n = 19; cited from earlier work.
Data set [4] concerns rabbit isolated jugular veins. Conditions: cited from earlier work.
The test system of data set [5] is palpebral conjunctiva of Beagle dogs. The settings on record: n = 6 per group, left eye, cited from earlier work.
Data set [6] concerns patients with glaucoma or ocular hypertension. The settings on record: cited from earlier work.
[7] abbreviates: bimatoprost 0.001% q.i.d. topical ocular for one month.
[8] abbreviates: bimatoprost 0.01% q.i.d. topical ocular for one month.
The mark [9] stands for this setting: bimatoprost 0.1% q.i.d. topical ocular for one month.

For the compound `CCNC(=O)CCC/C=C\C[C@@H]1[C@@H](/C=C/[C@@H](O)CCc2ccccc2)[C@H](O)C[C@@H]1O` [Bimatoprost, bimatoprost], the “Incidence of inflammation in palpebral conjunctiva (number of animals with histopathologic findings), Upper Eyelid, Chronic active” value in data set [1] (n = 6, right eye, bimatoprost 0.03% b.i.d. for 12 months) is on record as 5; in data set [1] (n = 6, right eye, bimatoprost 0.1% b.i.d. for 12 months), 3; in data set [1] (n = 8, right eye, bimatoprost 0.03% q.d. for 12 months), 4. Further, the “vasorelaxant response in presence of 100 μM L-NAME compared to 100 μM D-NAME control” value in data set [2] (endothelium-intact histamine precontracted tissues, P≦0.05 paired t-test) was “significantly inhibited”. Besides, the “difference in effects with and without 1 μM indomethacin” value in data set [2] (endothelium-intact tissues, each concentration tested) is “no statistically significant differences”. Further, the “Incidence of mononuclear cell infiltration in palpebral conjunctiva, Lower Eyelid, Minimal/mild” value in data set [3] was 12 number of animals. Moreover, in data set [3], the “Incidence of mononuclear cell infiltration in palpebral conjunctiva, Lower Eyelid, Moderate” value is recorded as 0 number of animals. Also, the “Incidence of mononuclear cell infiltration in palpebral conjunctiva, Upper Eyelid, Minimal/mild” value in data set [3] is given as 6 number of animals. Also, the “response in the endothelium-denuded preparation” value in data set [4] (endothelium-denuded, histamine precontracted, bimatoprost) is “inactive”. For the same compound, in data set [4] (endothelium-intact jugular veins, 3 μM histamine precontracted, read-out: vasorelaxant response EC50), the EC50 is 3.98 µM. In addition, the “Incidence of minimal-to-mild mononuclear cell infiltration in palpebral conjunctiva (number of animals with histopathologic findings), Lower Eyelid” value in data set [5] (setting [7]) is 3; in data set [5] (setting [8]), 5; in data set [5] (setting [9]), 6. Also, the “Incidence of minimal-to-mild mononuclear cell infiltration in palpebral conjunctiva (number of animals with histopathologic findings), Upper Eyelid” value is 4 in data set [5] (setting [7]), 3 in data set [5] (setting [8]) and 5 in data set [5] (setting [9]). Besides, the “mean laser-flare photometry readings and mean changes from baseline” value in data set [6] (1 year, bimatoprost 0.03% once or twice daily, timolol maleate 0.5% twice daily, subset of 310 patients) is reported as “no significant differences among the treatment groups”. In addition, the safety and tolerability result in data set [6] (study extension to 2 years) is “safe and well-tolerated”.

The values above are taken from patent US9579328B2, “Prostaglandin and vasoconstrictor pharmaceutical compositions and methods of use” (ALLERGAN, INC., priority 2012, dated 2017).
